A word on the Km: it is the substrate concentration at which the rate is half of its maximum.

Assay [1] relates to L-phenylalanine-dehydrogenase. Description: Photometric test of reductive amination (decrease of NADH at 340 nm). To be noted: purified PheDH (0.055 mg protein/ml), pH 8.5, 0.2 mM NADH, 0.7M ammonium chloride.
Procedure: The enzyme activity is determined with a photometric test, by measuring the decrease of the adsorption of NADH at 340 nm. […] The reaction rate of the catalyzed reaction is measured in relation of pH. […] If the substrate concentration of the aromatic α-ketocarboxylic acids or of the aromatic L-aminocarboxylic acids is small compared to their Km value then the reaction rate depends linearly on the substrate concentration.
The relationship of the speed of reaction of the reductive amination of phenyl pyruvate to L-phenylalanine for the substrate NADH was investigated in the following test mixture:
The dependency of the speed of reaction of the reductive amination of phenyl pyruvate to L-phenylalanine on the ammonium ion concentration was investigated in the following test mixture.
The subject of assay [2] is L-phenylalanine-dehydrogenase. In words: Continuous production of L-phenylalanine in enzyme membrane reactor with PEG-NADH. The class given is biochemical, Brevibacterium species DSM 2448. The following applies: over 110 hours, residence time 2.5 hours, 20 mM phenyl pyruvate. The source says: It is possible to continuously synthesize phenalyalanine from phenyl pyruvate in an enzyme membrane reactor using molecular weight enlarged NADH bound to polyethylene glycoe (PEG). The PEG-NADH was produced according to German Pat. No. 2,841,414. The modified coenzyme and the enzyme formate-dehydrogenase employed and L-phenylalanine-dehydrogenase were retained in the reactor by an ultrafiltration membrane YM5 (product of the Amicon Company, Witten) while the lower molecular weight components of the reaction solution, unreacted substrate and the L-phenylalanine formed were continuously removed from the reactor. The reactor volume was held constant while phenyl pyruvate and ammonium formate were metered in from a reservoir to the same extent that the ultrafiltrate left the reactor. The reactor volume was 10 ml, the concentration of PEG-NADH 0.3 mM. There were injected into the reactor 20 units of formate-dehydrogenaseand 20 units of L-phenylalanine-dehydrogenase. […]
The reaction solution was continuously circulated over the membrane at 30 ml/hour with a peristaltic pump. […] The ultrafiltrate was collected in fractions and the content of L-phenylalanine determined on the aminoacid analyzer. Over a time span of 110 hours on the average 70% of the phenyl pyruvate was converted to L-phenylalanine, in the combined ultrafiltrates there were measured 6.9 mmoles (1.14 grams) of L-phenylalanine. […]

In assay [3] the test system is L-phenylalanine-dehydrogenase. In words: Batch reductive amination of α-ketocarboxylic acids with NADH regeneration by formate-dehydrogenase, product on aminoacid analyzer. It is filed as biochemical, Brevibacterium species DSM 2448. The protocol:
In order to regenerate the NADH consumed in the reductive amination there was added to the reaction mixture an excess of ammonium formate and the enzyme formate-dehydrogenase (E.C. 1.2.1.2) which in the oxidation of formate to CO2 reduces the cosubstrate NAD^+ to NADH.
The test mixture contained thereby uniformly 400 mM of ammonium formate (pH 8.5), 0.3 mM NADH, 0.6 U/ml formate-dehydrogenase (prepared according to Kroner et al (1982), J. Chem. Tech. Biotechnol, Volume 32, pages 130 to 137), 0.5 U/ml L-phenylalanine-dehydrogenase, 25 mM α-ketocarboxylic acid. The total volume was 3 ml. The incubation was carried out with stirring at 27° C. The product formation in each case was followed on the aminoacid analyzer.

[4] abbreviates: 25 mM α-ketocarboxylic acid, 0.5 U/ml enzyme, 27° C., 2 hours.
Where [5] appears, read: 25 mM α-ketocarboxylic acid, 0.5 U/ml enzyme, 27° C., 6 hours.

As to `O=C(O)C(=O)Cc1ccccc1` [Phenylpyruvate, Phenyl pyruvic acid], in assay [1], the Km came to 110 µM and the Vmax stood at 1.82 U/ml. Further, the “phenyl pyruvate converted to L-phenylalanine, on the average” value in assay [2] is given as 70%. In assay [3] (setting [4]), the “Product Formation after 2 hours, %” value was 50% and the “Product Formation after 2 hours, mM” value is given as 12,5 mM. Besides, in assay [3] (setting [5]), the “Product Formation after 6 hours, %” value turned out to be 66% and the “Product Formation after 6 hours, mM” value is 16,6 mM. The “Utilization as a substrate” value in assay [3] (result in words) is on record as “converted well”.

Source of the values: patent publication US4590161A, “Microbiologically produced L-phenylalanine-dehydrogenase, process for its recovery and use” (priority 1983, dated 1986).
